According to US12391648B2, “Pyridyloxy thioester derivative and preparation method therefor, herbicidal composition, and application” (Qingdao Kingagroot Chemical Compound Co., Ltd., priority 2018, dated 2025):

Columns and labels:
Assay in all cases: Post-emergence test experiment (Table 3, 1000 g/ha)
Assay type in all cases: in vivo
Conditions in all cases: post-emergence spray, after 3 weeks, fresh weight inhibition
[1] = tested on: Monochoria vaginalis
From the text: (§1) The activity level standard of harmful plants destruction (i. e. growth inhibition rate) is as follows: • Level 5: the growth inhibition rate is greater than 85%; • Level 4: the growth inhibition rate is equal to or greater than 60% and less than 85%; • Level 3: the growth inhibition rate is equal to or greater than 40% and less than 60%; • Level 2: the growth inhibition rate is equal to or greater than 20% and less than 40%; • Level 1: the growth inhibition rate is equal to or greater than 5% and less than 20%; • Level 0: the growth inhibition rate is less than 5%;
(§2) The above described growth inhibition rate is fresh weight inhibition rate.
(§3) Post-emergence test experiment: Monocotyledonous and dicotyledonous weed seeds and main crop seeds (i. e. wheat, corn, rice, soybean, cotton, oilseed, millet and sorghum.) were put into a plastic pot loaded with soil. Then covered with 0.5-2 cm soil, the seeds were allowed to grow in good greenhouse environment. The test plants were treated at 2-3 leaf stage 2 weeks after sowing. The test compounds of the invention were dissolved with acetone respectively, then added with tween-80, and using 1.5 liters per hectare of an emulsible concentrate of methyl oleate as a synergist, and diluted by certain amount of water to certain concentration. The solution was sprayed to the plants with a sprayer. Then the plants were cultured for 3 weeks in the greenhouse, and the experiment result of weed controlling effect after 3 weeks was listed in tables 3-4.

[2] = tested on: Abutilon theophrasti
From the text: as §1, §2, §3

[3] = tested on: Galium spurium
From the text: as §1, §2, §3

## CCC(Oc1nc(Cl)c(Cl)c(N)c1Cl)C(=O)SC (stereo not drawn) [Compound 24]
[1]
  Activity level (growth inhibition rate) Monochoria Vaginalis: 5 (Level 5: the growth inhibition rate is greater than 85%)
[2]
  Activity level (growth inhibition rate) Abutilon theophrasti: 5 (Level 5: the growth inhibition rate is greater than 85%)
[3]
  Activity level (growth inhibition rate) Galium spurium: 5 (Level 5: the growth inhibition rate is greater than 85%)

## CSC(=O)C(Oc1nc(F)c(Cl)c(N)c1Cl)c1cnn(C(F)F)c1 (stereo not drawn) [Compound 58]
[1]
  Activity level (growth inhibition rate) Monochoria Vaginalis: 5 (Level 5: the growth inhibition rate is greater than 85%)
[2]
  Activity level (growth inhibition rate) Abutilon theophrasti: 5 (Level 5: the growth inhibition rate is greater than 85%)
[3]
  Activity level (growth inhibition rate) Galium spurium: 5 (Level 5: the growth inhibition rate is greater than 85%)

## CSC(=O)C(CCl)Oc1nc(F)c(Cl)c(N)c1Cl (stereo not drawn) [Compound 37]
[1]
  Activity level (growth inhibition rate) Monochoria Vaginalis: 5 (Level 5: the growth inhibition rate is greater than 85%)
[2]
  Activity level (growth inhibition rate) Abutilon theophrasti: 5 (Level 5: the growth inhibition rate is greater than 85%)
[3]
  Activity level (growth inhibition rate) Galium spurium: 5 (Level 5: the growth inhibition rate is greater than 85%)

## C=CC(Oc1nc(F)c(Cl)c(N)c1Cl)C(=O)SC (stereo not drawn) [Compound 32]
[1]
  Activity level (growth inhibition rate) Monochoria Vaginalis: 5 (Level 5: the growth inhibition rate is greater than 85%)
[2]
  Activity level (growth inhibition rate) Abutilon theophrasti: 5 (Level 5: the growth inhibition rate is greater than 85%)
[3]
  Activity level (growth inhibition rate) Galium spurium: 5 (Level 5: the growth inhibition rate is greater than 85%)

## CSC(=O)C(Oc1nc(F)c(Cl)c(N)c1Cl)[N+](=O)[O-] (stereo not drawn) [Compound 49]
[1]
  Activity level (growth inhibition rate) Monochoria Vaginalis: 5 (Level 5: the growth inhibition rate is greater than 85%)
[2]
  Activity level (growth inhibition rate) Abutilon theophrasti: 5 (Level 5: the growth inhibition rate is greater than 85%)
[3]
  Activity level (growth inhibition rate) Galium spurium: 5 (Level 5: the growth inhibition rate is greater than 85%)

## CSC(=O)C(Oc1nc(F)c(Cl)c(N)c1Cl)C(C)C (stereo not drawn) [Compound 27]
[1]
  Activity level (growth inhibition rate) Monochoria Vaginalis: 5 (Level 5: the growth inhibition rate is greater than 85%)
[2]
  Activity level (growth inhibition rate) Abutilon theophrasti: 5 (Level 5: the growth inhibition rate is greater than 85%)
[3]
  Activity level (growth inhibition rate) Galium spurium: 5 (Level 5: the growth inhibition rate is greater than 85%)

## CSC(=O)C(Oc1nc(F)c(Cl)c(N)c1Cl)SC (stereo not drawn) [Compound 47]
[1]
  Activity level (growth inhibition rate) Monochoria Vaginalis: 5 (Level 5: the growth inhibition rate is greater than 85%)
[2]
  Activity level (growth inhibition rate) Abutilon theophrasti: 5 (Level 5: the growth inhibition rate is greater than 85%)
[3]
  Activity level (growth inhibition rate) Galium spurium: 5 (Level 5: the growth inhibition rate is greater than 85%)

## CSC(=O)C(C=O)Oc1nc(F)c(Cl)c(N)c1Cl (stereo not drawn) [Compound 51]
[1]
  Activity level (growth inhibition rate) Monochoria Vaginalis: 5 (Level 5: the growth inhibition rate is greater than 85%)
[2]
  Activity level (growth inhibition rate) Abutilon theophrasti: 5 (Level 5: the growth inhibition rate is greater than 85%)
[3]
  Activity level (growth inhibition rate) Galium spurium: 5 (Level 5: the growth inhibition rate is greater than 85%)

## COC(=O)C(Oc1nc(F)c(Cl)c(N)c1Cl)C(=O)SC (stereo not drawn) [Compound 52]
[1]
  Activity level (growth inhibition rate) Monochoria Vaginalis: 5 (Level 5: the growth inhibition rate is greater than 85%)
[2]
  Activity level (growth inhibition rate) Abutilon theophrasti: 5 (Level 5: the growth inhibition rate is greater than 85%)
[3]
  Activity level (growth inhibition rate) Galium spurium: 5 (Level 5: the growth inhibition rate is greater than 85%)

## CSC(=O)C(CC#N)Oc1nc(F)c(Cl)c(N)c1Cl (stereo not drawn) [Compound 44]
[1]
  Activity level (growth inhibition rate) Monochoria Vaginalis: 5 (Level 5: the growth inhibition rate is greater than 85%)
[2]
  Activity level (growth inhibition rate) Abutilon theophrasti: 5 (Level 5: the growth inhibition rate is greater than 85%)
[3]
  Activity level (growth inhibition rate) Galium spurium: 5 (Level 5: the growth inhibition rate is greater than 85%)

## CSC(=O)C(Oc1nc(F)c(Cl)c(N)c1Cl)c1cccs1 (stereo not drawn) [Compound 53]
[1]
  Activity level (growth inhibition rate) Monochoria Vaginalis: 5 (Level 5: the growth inhibition rate is greater than 85%)
[2]
  Activity level (growth inhibition rate) Abutilon theophrasti: 5 (Level 5: the growth inhibition rate is greater than 85%)
[3]
  Activity level (growth inhibition rate) Galium spurium: 5 (Level 5: the growth inhibition rate is greater than 85%)

## CSC(=O)C(N)Oc1nc(F)c(Cl)c(N)c1Cl (stereo not drawn) [Compound 45]
[1]
  Activity level (growth inhibition rate) Monochoria Vaginalis: 5 (Level 5: the growth inhibition rate is greater than 85%)
[2]
  Activity level (growth inhibition rate) Abutilon theophrasti: 5 (Level 5: the growth inhibition rate is greater than 85%)
[3]
  Activity level (growth inhibition rate) Galium spurium: 5 (Level 5: the growth inhibition rate is greater than 85%)

## CSC(=O)C(Oc1nc(F)c(Cl)c(N)c1Cl)c1ccccc1 (stereo not drawn) [Compound 59]
[1]
  Activity level (growth inhibition rate) Monochoria Vaginalis: 5 (Level 5: the growth inhibition rate is greater than 85%)
[2]
  Activity level (growth inhibition rate) Abutilon theophrasti: 5 (Level 5: the growth inhibition rate is greater than 85%)
[3]
  Activity level (growth inhibition rate) Galium spurium: 5 (Level 5: the growth inhibition rate is greater than 85%)

## CSC(=O)C(Oc1nc(F)c(Cl)c(N)c1Cl)c1cccnc1 (stereo not drawn) [Compound 63]
[1]
  Activity level (growth inhibition rate) Monochoria Vaginalis: 5 (Level 5: the growth inhibition rate is greater than 85%)
[2]
  Activity level (growth inhibition rate) Abutilon theophrasti: 5 (Level 5: the growth inhibition rate is greater than 85%)
[3]
  Activity level (growth inhibition rate) Galium spurium: 5 (Level 5: the growth inhibition rate is greater than 85%)

## COCC(Oc1nc(F)c(Cl)c(N)c1Cl)C(=O)SC (stereo not drawn) [Compound 29]
[1]
  Activity level (growth inhibition rate) Monochoria Vaginalis: 5 (Level 5: the growth inhibition rate is greater than 85%)
[2]
  Activity level (growth inhibition rate) Abutilon theophrasti: 5 (Level 5: the growth inhibition rate is greater than 85%)
[3]
  Activity level (growth inhibition rate) Galium spurium: 5 (Level 5: the growth inhibition rate is greater than 85%)

## CSC(=O)C(Oc1nc(F)c(Cl)c(N)c1Cl)c1cscn1 (stereo not drawn) [Compound 55]
[1]
  Activity level (growth inhibition rate) Monochoria Vaginalis: 5 (Level 5: the growth inhibition rate is greater than 85%)
[2]
  Activity level (growth inhibition rate) Abutilon theophrasti: 5 (Level 5: the growth inhibition rate is greater than 85%)
[3]
  Activity level (growth inhibition rate) Galium spurium: 5 (Level 5: the growth inhibition rate is greater than 85%)

## CSC(=O)C(CC(F)(F)F)Oc1nc(F)c(Cl)c(N)c1Cl (stereo not drawn) [Compound 42]
[1]
  Activity level (growth inhibition rate) Monochoria Vaginalis: 5 (Level 5: the growth inhibition rate is greater than 85%)
[2]
  Activity level (growth inhibition rate) Abutilon theophrasti: 5 (Level 5: the growth inhibition rate is greater than 85%)
[3]
  Activity level (growth inhibition rate) Galium spurium: 5 (Level 5: the growth inhibition rate is greater than 85%)

## CSC(=O)C(CF)Oc1nc(F)c(Cl)c(N)c1Cl (stereo not drawn) [Compound 38]
[1]
  Activity level (growth inhibition rate) Monochoria Vaginalis: 5 (Level 5: the growth inhibition rate is greater than 85%)
[2]
  Activity level (growth inhibition rate) Abutilon theophrasti: 5 (Level 5: the growth inhibition rate is greater than 85%)
[3]
  Activity level (growth inhibition rate) Galium spurium: 5 (Level 5: the growth inhibition rate is greater than 85%)

## CSC(=O)C(Cl)Oc1nc(F)c(Cl)c(N)c1Cl (stereo not drawn) [Compound 35]
[1]
  Activity level (growth inhibition rate) Monochoria Vaginalis: 5 (Level 5: the growth inhibition rate is greater than 85%)
[2]
  Activity level (growth inhibition rate) Abutilon theophrasti: 5 (Level 5: the growth inhibition rate is greater than 85%)
[3]
  Activity level (growth inhibition rate) Galium spurium: 5 (Level 5: the growth inhibition rate is greater than 85%)

## CSC(=O)C(Oc1nc(F)c(Cl)c(N)c1Cl)c1ccco1 (stereo not drawn) [Compound 54]
[1]
  Activity level (growth inhibition rate) Monochoria Vaginalis: 5 (Level 5: the growth inhibition rate is greater than 85%)
[2]
  Activity level (growth inhibition rate) Abutilon theophrasti: 5 (Level 5: the growth inhibition rate is greater than 85%)
[3]
  Activity level (growth inhibition rate) Galium spurium: 5 (Level 5: the growth inhibition rate is greater than 85%)
